Assay results published in US20210324359A1, “USE OF GRAM-NEGATIVE LYSIN-ANTIMICROBIAL PEPTIDE (AMP) POLYPEPTIDE CONSTRUCTS IN TREATING ENDOCARDITIS” (priority 2020, published 2021).

Columns and labels:
Type in all cases: cell-based, Pseudomonas aeruginosa
[1] = system: carbapenem-resistant P. aeruginosa strains; assay: Resensitization of carbapenem-resistant strains, combinations with imipenem or meropenem (Tables 18-22)
Description: Such resensitization may be determined by combining the present lysins or lysin-AMP polypeptide constructs with an antibiotic in a checkerboard assay as described herein. Antibiotic-resistant bacteria, such as carbapenem-resistant P. aeruginosa, are added to the lysin or lysin-AMP polypeptide construct combination. […] See Clinical and Laboratory Standards Institute (CLSI), CLSI. […] M100 Performance Standards for Antimicrobial Susceptibility Testing; 29th Edition. Clinical and Laboratory Standards Institute, Wayne, Pa., which is herein incorporated by reference in its entirety.
Up to seven carbapenem-resistant isolates were assessed. […] See Clinical and Laboratory Standards Institute (CLSI), CLSI. […] M100 Performance Standards for Antimicrobial Susceptibility Testing; 29th Edition. Clinical and Laboratory Standards Institute, Wayne, Pa.

[2] = system: P. aeruginosa; assay: MIC, modified CLSI broth microdilution in CAA medium without or with […] human serum (Table 4); conditions: for CAA MIC: CAA medium, no human serum; for CAA/HuS MIC: CAA supplemented with […] human serum; for effect of the structural modification on activity (as assessed by MIC) versus the parent lysin: CAA with and without human serum, parent GN316 or GN37; for CAA/HuS MIC: CAA supplemented with 2.5% human serum
Description: 2015. […] Clinical and Laboratory Standards Institute, Wayne, Pa.

[3] = system: P. aeruginosa strain WC-453; assay: Time-kill assay in HEPES or CAA with 25% human serum (Tables 7, 8); conditions: for HEPES (Log10 CFU/mL), 1 hr / HEPES (Log10 CFU/mL), 3 hr: 25 mM HEPES pH 7.4; for HEPES (Log10 CFU/mL), 1 hr / HEPES (Log10 CFU/mL), 3 hr / CAA/HuS (Log10 CFU/mL), 1 hr / CAA/HuS (Log10 CFU/mL), 3 hr: lysin 10 μg/ml, WC-453; for CAA/HuS (Log10 CFU/mL), 1 hr / CAA/HuS (Log10 CFU/mL), 3 hr: CAA + 25% human serum
Description: Exponential phase bacteria were then pelleted and resuspended in 1/5 culture volume of 25 mM HEPES, pH 7.4 before a final adjustment to an optical density corresponding to a McFarland value of 0.5. […] All treatments were incubated at 37° C. with aeration. At time points before the addition of lysin (or buffer control) and at 1 hour and 3 hours intervals thereafter, culture samples were removed for quantitative plating on CAA agar plates.

[4] = system: carbepenam-resistant clinical isolate WC-453; assay: MIC in CAA without or with 25% human serum (Table 5); parameters: CAA MIC: unit not given here; conditions: for CAA/HuS MIC: CAA supplemented with 25% human serum
Description: MIC values were determined using a modification of the standard broth microdilution reference method defined by the Clinical and Laboratory Standards Institute (CLSI), CLSI. […] Methods for Dilution Antimicrobial Susceptibility Tests for Bacteria That Grow Aerobically; Approved Standard-10th Edition. Clinical and Laboratory Standards Institute, Wayne, Pa.

[5] = in combination with GN121, isolate PA19
[6] = in combination with GN121, isolate PA20
[7] = in combination with GN121, isolate PA21
[8] = in combination with GN121, isolate PA22
[9] = in combination with GN121, isolate PA23
[10] = in combination with GN121, isolate PA24
[11] = in combination with GN123, isolate PA19
[12] = in combination with GN123, isolate PA20
[13] = in combination with GN123, isolate PA21
[14] = in combination with GN123, isolate PA22
[15] = in combination with GN123, isolate PA23
[16] = in combination with GN123, isolate PA24
[17] = in combination with GN123, isolate WC-452

## C[C@@H](O)[C@H]1C(=O)N2C(C(=O)O)=C(SCCN=CN)C[C@H]12 [Imipenem, imipenem, reference compound]
[1]; [5]
  antibiotic MIC, Combination: 1 µg/mL
  carbapenem susceptibility class, Combination: (S) ((S) = sensitive)
[1]; [6]
  antibiotic MIC, Combination: 0.5 µg/mL
  carbapenem susceptibility class, Combination: (S) ((S) = sensitive)
[1]; [7]
  antibiotic MIC, Combination: 1 µg/mL
  carbapenem susceptibility class, Combination: (S) ((S) = sensitive)
[1]; [8]
  antibiotic MIC, Combination: 2 µg/mL
  carbapenem susceptibility class, Combination: (S) ((S) = sensitive)
[1]; [9]
  antibiotic MIC, Combination: 0.125 µg/mL
  carbapenem susceptibility class, Combination: (S) ((S) = sensitive)
[1]; [10]
  antibiotic MIC, Combination: 1 µg/mL
  carbapenem susceptibility class, Combination: (S) ((S) = sensitive)
[1]; [11]
  antibiotic MIC, Combination: 0.5 µg/mL
  carbapenem susceptibility class, Combination: (S) ((S) = sensitive)
[1]; [12]
  antibiotic MIC, Combination: 1 µg/mL
  carbapenem susceptibility class, Combination: (S) ((S) = sensitive)
[1]; [13]
  antibiotic MIC, Combination: 0.5 µg/mL
  carbapenem susceptibility class, Combination: (S) ((S) = sensitive)
[1]; [14]
  antibiotic MIC, Combination: 2 µg/mL
  carbapenem susceptibility class, Combination: (S) ((S) = sensitive)
[1]; [15]
  antibiotic MIC, Combination: 0.25 µg/mL
  carbapenem susceptibility class, Combination: (S) ((S) = sensitive)
[1]; [16]
  antibiotic MIC, Combination: 2 µg/mL
  carbapenem susceptibility class, Combination: (S) ((S) = sensitive)
[1]; [17]
  antibiotic MIC, Combination: 1 µg/mL
  carbapenem susceptibility class, Combination: (S) ((S) = sensitive)
[1]; in combination with GN351, vs. WC-452
  carbapenem susceptibility class, Combination: (S) ((S) = sensitive)
[1]; in combination with GN370, vs. WC-452
  carbapenem susceptibility class, Combination: (S) ((S) = sensitive)
[1]; in combination with GN428, vs. WC-452
  carbapenem susceptibility class, Combination: (S) ((S) = sensitive)
[1]; isolate PA19
  carbapenem susceptibility class, antibiotic Alone: R ((R) = resistant)
[1]; isolate PA20
  carbapenem susceptibility class, antibiotic Alone: R ((R) = resistant)
[1]; isolate PA21
  carbapenem susceptibility class, antibiotic Alone: R ((R) = resistant)
[1]; isolate PA22
  carbapenem susceptibility class, antibiotic Alone: R ((R) = resistant)
[1]; isolate PA23
  carbapenem susceptibility class, antibiotic Alone: R ((R) = resistant)
[1]; isolate PA24
  carbapenem susceptibility class, antibiotic Alone: R ((R) = resistant)
[1]; isolate WC-452
  carbapenem susceptibility class, antibiotic Alone: R ((R) = resistant)

B1: GN239: lysin-AMP construct: IGEM linker and RI18 peptide C-terminal to GN37 lysin (SEQ ID NO: 14) (protein)
chain: MTYTLSKRSLDNLKGVHPDLVAVVHRAIQLTPVDFAVIEGLRSVSRQKELVAAGASKTMNSRHLTGHAVDLAAYVNGIRWDWPLYDAIAVAVKAAAKELGVAIVWGGDWTTFKDGPHFELDRSKYGGGSGGGGSGGGSRKKTRKRLKKIGKVLKWI
[2]
  CAA MIC: 4 mg/mL
  CAA/HuS MIC: 0.25 mg/mL
  effect of the structural modification on activity (as assessed by MIC) versus the parent lysin: very strong activity in the presence of human serum

B2: GN40: lysin obtained from Pseudomonas putida strain PA14H7 (SEQ ID NO: 210) (protein, listed as Micavibrio aeruginosavorus)
chain: MFRPSYILPGVAAVMLLASTAAHAAGYEWKRVDYQYLQSVSEKERGMLRIYKDYEEREPCQNYRELPPEVKYVDCKLYHRVAIPDPPPPPAPPPAPEPPKVVSSYEIFFPLDSTALDLQANAMVDKAAADIALYQPSTVIVAGYTDTSGAADYNDQLSANRAMAVSAALSQRGIPNTAMDLEAHGQNDLKVPTADDVHEPQNRRTVIHFMK
[3]
  HEPES (Log10 CFU/mL), 1 hr: 7.0 Log10 CFU/mL
  HEPES (Log10 CFU/mL), 3 hr: 5.7 Log10 CFU/mL
  CAA/HuS (Log10 CFU/mL), 1 hr: 6.6 Log10 CFU/mL
  CAA/HuS (Log10 CFU/mL), 3 hr: 6.7 Log10 CFU/mL

B3: GN223: lysin-AMP construct: RPP moiety, IGEM linker and amurin peptide Gkh2 C-terminal to GN37 lysin (SEQ ID NO: 12) (protein)
chain: MTYTLSKRSLDNLKGVHPDLVAVVHRAIQLTPVDFAVIEGLRSVSRQKELVAAGASKTMNSRHLTGHAVDLAAYVNGIRWDWPLYDAIAVAVKAAAKELGVAIVWGGDWTTFKDGPHFELDRSKYRPPGGGSGGGGSGGGSSKKASRKSFTKGAVKVHKKNVPTRVPMRGGIRL
[2]
  CAA MIC: 32 mg/mL
  CAA/HuS MIC: 2 mg/mL
  effect of the structural modification on activity (as assessed by MIC) versus the parent lysin: very strong activity in the presence of human serum

B4: GN328: lysin obtained from Pseudomonas protegens (SEQ ID NO: 220) (protein, listed as Pseudomonas protegens)
chain: MNTLRHGDRSQAVRSLQKNLNSHGAILVVDGDYGDATEAAVRAYQLKAGLVVDGIAGEKTQTSLVGGDCALLLKNADLVSAAQRLDLPLASVYAVNEVESNGKGFFANGKPAILFERHIMYRQLKTPRYPGDDPAELKRHADELAAQYPAIINPNPGGYAGGPAEHQRLATARLIDDTAALESASWGAFQIMGFHWKRLGYASVQDFVTAMSASEPRQFEAFVRFIETDPALHKALKARKWSDFARQYNGPNYQRNLYDTKLQRAYERHSACSCGQEVPA
[4]
  activity in CAA supplemented with human serum (25%): active
  CAA MIC: 8
  CAA/HuS MIC: 2

B5: GN65: Lysin GN65, used as control (protein)
chain: MAILKIGSKGLEVKNLQTSLNKIGFNLVADGIFGKATDNAVRAVQAGAGLVVDGIAGPKTMYAIRNAGESHQDHLTEADLIDAARELSVDLASIKAVNQVESRGTGFTKSGKIKTLFERHIMYKKLNAKFGQAKANALAQLYPTLVNAKAGGYTGGDAELERLHGAIAIDKDCAYESASYGLFQIMGFNCVICGYDNAEEMFNDFLTGERAQLMAFVKFIKADANLWKALKDKNWAEFARRYNGPAYAQNQYDTKLAAAYKSFS
modifications: (1)..(264) GN316 lysin
[3]
  HEPES (Log10 CFU/mL), 1 hr: 5.7 Log10 CFU/mL
  HEPES (Log10 CFU/mL), 3 hr: <3.7 Log10 CFU/mL
  CAA/HuS (Log10 CFU/mL), 1 hr: 6.0 Log10 CFU/mL
  CAA/HuS (Log10 CFU/mL), 3 hr: <3.7 Log10 CFU/mL

B6: GN14: lysin obtained from Pseudomonas phage Lull (SEQ ID NO: 124) (protein)
chain: NNELPWVAEARKYIGLREDTSKTSHNPKLLAMLDRMGEFSNESRAWWHDDETPWCGLFVGYCLGVAGRYVVREWYRARAWEAPQLTKLDRPAYGALVTFTRSGGGHVGFIVGKDARGNLMVLGGNQSNAVSIAPFAVSRVTGYFWPSFWRNKTAVKSVPFEERYSLPLLKSNGELSTNEA
[4]
  activity in CAA supplemented with human serum (25%): active
  CAA MIC: >128
  CAA/HuS MIC: 32
[3]; 10 μg/mL, enumerated lysins in CAA/HuS, general statement for HEPES and CAA/HuS
  bactericidal activity (CFU decrease of 3-Log10, 3 hours after the addition of lysin): bactericidal activity
[3]
  HEPES (Log10 CFU/mL), 1 hr: <3.7 Log10 CFU/mL
  HEPES (Log10 CFU/mL), 3 hr: <3.7 Log10 CFU/mL
  CAA/HuS (Log10 CFU/mL), 1 hr: 5.7 Log10 CFU/mL
  CAA/HuS (Log10 CFU/mL), 3 hr: <3.7 Log10 CFU/mL

B7: GN81: dispersin B, an enzyme that degrades biofilm (SEQ ID NO: 226); control (protein, listed as Actinobacillus pleuropneumoniae)
chain: MDLPKKESGLTLDIARRFYTVDTIKQFIDTIHQAGGTFLHLHFSDHENYALESSYLEQREENATEKNGTYFNPKTNKPFLTYKQLNEIIYYAKERNIEIVPEVDSPNHMTAIFDLLTLKHGKEYVKGLKSPYIAEEIDINNPEAVEVIKTLIGEVIYIFGHSSRHFHIGGDEFSYAVENNHEFIRYVNTLNDFINSKGLITRVWNDGLIKNNLSELNKNIEITYWSYDGDAQAKEDIQYRREIRADLPELLANGFKVLNYNSYYLYFVPKSGSNIHNDGKYAAEDVLNNWTLGKWDGKNSSNHVQNTQNIIGSSLSIWGERSSALNEQTIQQASKNLLKAVIQKTNDPKSH
[3]
  HEPES (Log10 CFU/mL), 1 hr: 7.4 Log10 CFU/mL
  HEPES (Log10 CFU/mL), 3 hr: 6.5 Log10 CFU/mL
  CAA/HuS (Log10 CFU/mL), 1 hr: 6.7 Log10 CFU/mL
  CAA/HuS (Log10 CFU/mL), 3 hr: 7.0 Log10 CFU/mL

B8: GN243: lysin-AMP construct: PP moiety, IGEM linker and TI15 peptide C-terminal to GN37 lysin (SEQ ID NO: 16) (protein)
chain: MTYTLSKRSLDNLKGVHPDLVAVVHRAIQLTPVDFAVIEGLRSVSRQKELVAAGASKTMNSRHLTGHAVDLAAYVNGIRWDWPLYDAIAVAVKAAAKELGVAIVWGGDWTTFKDGPHFELDRSKYRKKTRKRLKKIGKVLKWIPPGGGSGGGGSGGGSTRKRLKKIGKVLKWI
[2]
  CAA MIC: 32 mg/mL
  CAA/HuS MIC: 0.5 mg/mL
  effect of the structural modification on activity (as assessed by MIC) versus the parent lysin: very strong activity in the presence of human serum
